Experimental data as given in patent US5847125A, “Amino acid derivatives with anticholecystokinin activity” (James Black Foundation Limited, priority 1992, dated 1998).
Read-outs that look alike come from different tables or passages of the source.

Tests used:
[1] = target: T1, CCK (gallbladder) receptor (Cavia porcellus, UniProt Q63931); test: CCK-receptor bioassay, isolated guinea-pig gall-bladder strip preparations, CCK-8 as agonist; type: cell-based, male Dunkin-Hartley guinea-pigs; conditions: negative log10 of equilibrium dissociation constant, guinea-pig gall-bladder strips, CCK-8 agonist, test compound incubated for 60 minutes, 37° C; for Kb: read-out: pKB versus CCK (gallbladder) (converted)
T1 construct: Isolated, strip preparations were prepared from gall-bladders removed from male Dunkin-Hartley guinea-pigs; from tissue; host or cells: guinea-pig gall-bladder strips
T1 sequence (Q63931 1-430): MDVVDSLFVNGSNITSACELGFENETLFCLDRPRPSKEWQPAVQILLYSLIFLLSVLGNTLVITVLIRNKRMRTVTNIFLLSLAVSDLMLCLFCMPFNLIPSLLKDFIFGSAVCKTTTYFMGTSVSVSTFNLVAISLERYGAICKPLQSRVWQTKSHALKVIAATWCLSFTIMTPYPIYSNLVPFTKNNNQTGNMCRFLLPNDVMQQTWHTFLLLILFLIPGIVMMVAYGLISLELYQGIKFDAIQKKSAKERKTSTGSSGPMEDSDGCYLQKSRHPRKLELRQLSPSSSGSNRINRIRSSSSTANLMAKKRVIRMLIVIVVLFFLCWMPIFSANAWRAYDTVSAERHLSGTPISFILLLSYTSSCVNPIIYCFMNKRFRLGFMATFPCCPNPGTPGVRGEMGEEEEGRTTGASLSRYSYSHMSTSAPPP
Description: The compounds of the examples were assayed using a CCK-receptor bioassay as follows:
Isolated, strip preparations were prepared from gall-bladders removed from male Dunkin-Hartley guinea-pigs (250-500 g body weight) according to the method of La Morte, W. W., et al., J.P.E.T., 217, (3), 638-644 (1981).
The complete gall-bladder is removed and opened along the longitudinal axis. Strips measuring 3 mm in the longitudinal axis and 1 mm in the transverse axis are cut and then tied with cotton to stainless steel wires. The preparation is connected to a GRASS FTO3 isometric transducer under an initial loading tension of 1 g and is immersed in 20 mls of Krebs solution maintained at 37° C. and gassed with 95% O2 /5% CO2. The Krebs solution is as detailed above in connection with the fundus assay, except that the Ca^2+ concentration is decreased to 0.5 mM. After 30 mins the preparation is washed. Drug addition begins after an initial 90 min stabilisation period. Responses are measured as changes in tension from that immediately prior to any drug addition. Single cumulative agonist concentration-effect curves, using CCK-8 as agonist, are obtained on each preparation in the absence and presence of test compound which has been incubated for 60 minutes. The antagonist activity of the test compound is estimated and expressed as the negative logarithm (base 10) of the equilibrium dissociation constants (pKB) using the modifications of standard competitive analysis described by Black et al., Br. J. Pharmacol.,86,571-579, (1985) and Shankley et al., Br. J. Pharmacol.,94,264-274 (1988).

CCKB receptor = target: T2, CCKB receptor (Mus musculus, UniProt P56481); test: CCKB radioligand binding assay in mouse cortical membranes, [125I] CCK-8S (selectivity testing); parameters: species or system male mice; conditions: [125I] CCK-8S 200 pM, 150 min at 21°; for Ki: pH 7.2, non-specific binding L-365,260, read-out: pKi CCKB (converted)
T2 construct: CCKB receptor in mouse cortical membranes; from tissue; host or cells: mouse cerebral cortex membranes (male mice, Charles River)
T2 sequence (P56481 1-453): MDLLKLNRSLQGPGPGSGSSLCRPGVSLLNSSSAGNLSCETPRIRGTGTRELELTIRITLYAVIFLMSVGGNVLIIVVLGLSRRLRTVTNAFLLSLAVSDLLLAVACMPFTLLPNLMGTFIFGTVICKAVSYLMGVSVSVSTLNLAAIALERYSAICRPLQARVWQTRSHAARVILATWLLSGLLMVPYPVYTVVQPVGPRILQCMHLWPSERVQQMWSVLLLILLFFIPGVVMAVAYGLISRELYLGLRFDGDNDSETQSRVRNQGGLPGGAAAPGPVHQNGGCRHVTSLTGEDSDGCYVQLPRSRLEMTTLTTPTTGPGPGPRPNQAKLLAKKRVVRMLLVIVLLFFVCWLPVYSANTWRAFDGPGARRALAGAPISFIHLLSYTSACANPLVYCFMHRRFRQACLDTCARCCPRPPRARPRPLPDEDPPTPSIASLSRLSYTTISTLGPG
Description: The compounds were assayed for selectivity with respect to the CCKB receptor in mouse cortical membranes by means of a radioligand binding assay. The procedure was as follows:
The whole brains from male mice (CDI 22-25 g; Charles River) were removed and placed in ice-cold buffer (pH 7.2 at 21°±3° C.) of the following composition (mM); 10 HEPES, 130 NaCl, 4.7 KCl, 5 MgCl2, 1 EDTA and containing 0.25 g. 1^-1 bacitracin.
The cortex was dissected, weighed and homogenised in 40 ml ice-cold buffer using a Teflon-in-glass homogeniser. The homogenate was centrifuged at 39,800 g for 20 min at 4° C., the supernatant discarded and the pellet resuspended by homogenisation in fresh buffer. The homogenate was recentrifuged (39,800 g; 20 min at 4° C.) and the final pellet was resuspended in HEPES buffer to give a tissue concentration of 2 mg ml^-1 (original wet weight).
The membranes (400 μl) were incubated for 150 min at 21°±3° C. in a final volume of 0.5 ml with HEPES buffer containing [^125 I] CCK-8S (0.05 ml; 200 pM NEN 2200Ci.mmol^-1) and competing compound. Total and non-specific binding of [^125 I] CCK-8S were defined using 0.05 ml of buffer and 0.05 ml of 10 mM L-365,260, respectively. The assay was terminated by rapid filtration through pre-soaked Whatman GF/B filters using a Brandell Cell harvester. The filters were washed (3×3 ml) with ice-cold 50 mM Tris-HCl (pH 7.4 at 4° C.) and bound radioactivity determined by counting (1 min.) in a gamma counter.

CCKA = target: T3, CCKA (Cavia porcellus, UniProt Q63931); test: CCKA binding assay, pancreas membranes, [125I]-CCK8(S); parameters: species or system male guinea-pigs (Dunkin Hartley)
T3 construct: The pancreatata were removed from male guinea-pigs (200-300 g; Dunkin Hartley); from tissue; host or cells: guinea-pig pancreas membranes
T3 sequence (Q63931 1-430): T1 sequence (Q63931 1-430)
Description: The compounds of the examples were also tested in a CCKA binding assay as follows:
The pancreatata were removed from male guinea-pigs (200-300 g; Dunkin Hartley) and placed in ice-cold HEPES buffer (pH 7.2@21°±3°). The pancreatata were homogenised in 40 ml ice-cold HEPES buffer using a polytron (Brinkmann, PT10, setting 10) 4×1 second. The homogenate was centrifuged at 39,800 g for 15 min at 4°. The supernatant was discarded and the pellet re-suspended using a Teflon-in-glass homogeniser in 20 volumes of fresh buffer and re-centrifuged as above. The final pellet was re-suspended using a Teflon-in-glass homogeniser to a tissue concentration of 1 mg ml^31 1 (original wet weight), and filtered through 500 μm pore-size Nytex mesh.
The membranes (400 μl; containing 0.375 μM PD134,308) are incubated for 150 minutes at 21°±3° in a final volume of 0.5 ml with HEPES buffer containing [^125 I]--CCK8 (S) (50 μl; 200 pM) and competing compound. Total and non-specific binding of [^125 I]--CCK8 (S) are defined using 50 μl of buffer and 50 μl of 100 nM L-364,718 respectively. The assay is terminated by rapid filtration through pre-soaked Whatman GF/B filters using a Brandell Cell Harvester. The filters were washed (3×3 ml) with ice-cold 50 mM Tris HCl (pH 7.4 at 4°) and bound radioactivity is determined by counting (1 min) in a gamma counter.

[2] = guinea-pig pancreas membranes, [125I]-CCK8(S) 200 pM, 0.375 μM PD134,308, 150 minutes at 21°, non-specific binding 100 nM L-364,718, read-out: pKi CCKλ (converted)

SMILES	Kb [1] [nM]	Ki (CCKB receptor) [nM]	Ki (CCKA; [2]) [nM]	pKB versus CCK (gallbladder) [1]	pKi CCKB (CCKB receptor; pH 7.2, non-specific binding L-365,260)	pKi CCKλ (CCKA; guinea-pig pancreas membranes, [125I]-CCK8(S) 200 pM, 0.375 μM PD134,308, 150 minutes at 21°, non-specific binding 100 nM L-364,718)	Ki (CCKA) [nM]
CC(C)(C)CCNC(=O)[C@H](CC(=O)O)NS(=O)(=O)c1ccc2ccccc2c1 [Example 6, 2-Naphthalenesulphonyl-L-aspartyl (3,3-dimethyl)-butylamide]	501	25100	501				
O=C(O)C[C@H](NS(=O)(=O)c1ccc2ccccc2c1)C(=O)N1CC2CCC(CC2)C1 [Example 15, 2-Naphthalenesulphonyl-L-aspartyl 3-azabicyclo-[3.2.2]nonylamide]		25100	10000				
CCCCCOC(=O)[C@H](CC(=O)O)NS(=O)(=O)c1ccc2ccccc2c1 [Example 20, 2-Naphthalenesulphonyl-L-aspartyl pentyl ester]		20000	2000				
CCCCCN(CCCCC)C(=O)[C@H](CCC(=O)O)NS(=O)(=O)c1ccc2ccccc2c1 [Example 19, 2-Naphthalenesulphonyl-L-glutamyl dipentylamide]	631	3160	1580				
CCCCN(CCCC)C(=O)[C@H](CC(=O)O)NS(=O)(=O)c1ccc2ccccc2c1 [Example 3, 2-Naphthalenesulphonyl-L-aspartyl dibutylamide]	631	25100	1000				
CCCCCN(CCCOC)C(=O)[C@H](CC(=O)O)NS(=O)(=O)c1ccc2ccccc2c1 [Example 8, 2-Naphthalenesulphonyl-L-aspartyl N-(3-methoxypropyl)pentylamide]				6.7	4.4	5.6	
O=C(O)C[C@H](NS(=O)(=O)c1ccc2ccccc2c1)C(=O)NCCC1CCCCC1 [Example 11, 2-Naphthalenesulphonyl-L-aspartyl 2-cyclohexylethylamide]	79.4	25100	158				
O=C(O)C[C@H](NS(=O)(=O)c1ccc2ccccc2c1)C(=O)NCCC12CC3CC(CC(C3)C1)C2 [Example 12, 2-Naphthalenesulphonyl-L-aspartyl 2-(1-adamantyl) ethylamide]	50.1	7940	126				
O=C(O)C[C@H](NS(=O)(=O)c1ccc2ccccc2c1)C(=O)N1CCC2(CCCC2)CC1 [Example 13, 2-Naphthalenesulphonyl-L-aspartyl 3-azaspiro[5.4]decylamide]	6310	10000	6310				
CCCCCN(CCCCC)C(=O)[C@H](CC(=O)O)NS(=O)(=O)c1cccc2ccccc12 [Example 21, 1-Naphthalenesulphonyl-L-aspartyl dipentylamide]	1260	10000	2000				
O=C(O)C[C@H](NS(=O)(=O)c1ccc2ccccc2c1)C(=O)N1CCC2(CC1)OCCO2 [Example 14, 2-Naphthalenesulphonyl-L-aspartyl 1,4-dioxa-8-azaspiro-[5.4]decylamide]							10000
CCCCCNC(=O)[C@H](CC(=O)O)NS(=O)(=O)c1ccc2ccccc2c1 [Example 5, 2-Naphthalenesulphonyl-L-aspartyl pentylamide]	398	100000	1000				
CCCCCN(CCCCC)C(=O)[C@H](CC(=O)O)NS(=O)(=O)c1ccc2ccccc2c1 [Example 1, 2-Naphthalenesulphonyl-L-aspartyl dipentylamide]	200	7940	251				
CCCCCCN(CCCCCC)C(=O)[C@H](CC(=O)O)NS(=O)(=O)c1ccc2ccccc2c1 [Example 4, 2-Naphthalenesulphonyl-L-aspartyl dihexylamide]	158	5010	126				
CCCCCN(CCCCC)C(=O)[C@@H](CCC(=O)O)NS(=O)(=O)c1ccc2ccccc2c1 [Example 2, 2-Naphthalenesulphonyl D-glutamyl dipentylamide]	1000	3980	158				
CCCCC(CC)CN(CC(CC)CCCC)C(=O)[C@H](CC(=O)O)NS(=O)(=O)c1ccc2ccccc2c1 (stereo partly drawn) [Example 17, 2-Naphthalenesulphonyl-L-aspartyl di(2-ethyl)hexylamide]		2000	1260				
O=C(O)C[C@H](NS(=O)(=O)c1ccc2ccccc2c1)C(=O)NC1CCCCCCCCCCC1 [Example 16, 2-Naphthalenesulphonyl-L-aspartyl cyclododecylamide]	79.4	10000	39.8				
CCCCCCN(C)C(=O)[C@H](CC(=O)O)NS(=O)(=O)c1ccc2ccccc2c1 [Example 7, 2-Naphthalenesulphonyl-L-aspartyl N-(methyl)hexylamide]	316	50100	3160				
